Values of other authors, collected in patent US20040180103A1, “Use of plants of the genus hypericum for facilitating the synchronization of a circadian rhythm” (priority 2001, published 2004).

System: circadian rhythms in Siberian hamsters
Conditions: 5 h phase shift under daily administration

Compound: COc1ccc2[nH]cc(CCNC(C)=O)c2c1 [melatonin]
- share of animals that adapt to the new light-dark cycle: 71%
